Experimental findings from article PMC13242511, “Disrupting Notch signalling by a small molecule inhibiting dihydroorotate dehydrogenase activity” (Scientific Reports, 2026) are described below.

Holding throughout (type): cell-based
In one assay the test system is MDA-MB-231 cells. Briefly: Immunocytochemistry of NOTCH1, nuclei and giant cell count. Further details: Average Size nuclei / AVG Average Size nuclei: unit not given here. Particulars: for fraction of cells with large nuclei / overall level of NOTCH1 (ICC) / AVG Giant cells/ total nucl (%) / AVG Average Size nuclei / Average Size nuclei / Count (nuclei per field) / Giant cells /field / Giant cells/ total nucl (%): MDA-MB-231, 2 µM; for fraction of cells with large nuclei / overall level of NOTCH1 (ICC): 24 h; for fraction of cells with large nuclei: compared to DMSO, Fig. 8D; for overall level of NOTCH1 (ICC): Fig. 8A; for Average Size nuclei / Count (nuclei per field) / Giant cells /field / Giant cells/ total nucl (%): single images; for cell morphology: overview in comparison to compound C, Supplemental Fig. 9. As to the method:
20,000 MDA-MB-231 cells were seeded on cover-slides (BD Bioscience), allowed to attach and treated with 2 µM compound for 24 h and 72 h upon reaching 80% confluence. For quantification of NOTCH1 signals and to monitor morphological changes immunocytochemistry staining to localize NOTCH1 was carried out as described above for C2C12 cells. Cellular morphology was visualized with Phalloidin (Thermofisher, cat # A22287), used at 1:2000 dilution and a NOTCH1 antibody used at 1:100 dilution (Cell signalling, cat #D6F11). Images were recorded using a Zeiss LSM 700 laser scanning microscope with a 40 × objective. Identical channel configuration and detector gain settings were used for quantification of fluorescence signals and a minimum of four images were recorded per condition. Secondary antibody control background signals were averaged and subtracted from each image and the same brightness and contrast adjustments were applied to all images before conducting histogram-based quantification of NOTCH1 signals. A 10 × objective was used for assessing morphological changes and a minimum of four and three images at 24 h and 72 h, respectively were recorded for quantification of nuclei count, size and number of giant cells. Images were processed using Fiji (ImageJ) software and objects were separated from background using Otsu thresholding until all nuclei were detectable. Nuclei objects were filled and nuclei particles were measured using size exclusion and circularity filter settings, 10-infinity (size) and 0,1–0,5 (circularity). Overlay images of nuclear stain and Phalloidin were used to manually count and annotate giant cells using Fiji’s cell counter.

The next assay has as its system NOTCH1. Kind of assay: Cycloheximide chase experiment (half-life of cleaved NOTCH1). Set-up: key to NOTCH1 (TMICD), DMSO as reference: western blot band intensity normalised to beta-Actin, relative to DMSO. Particulars: for NOTCH1/ (TMICD) band intensity: 5 µM. As to the method: HEK293T Notch reporter cells (clone #A1-11) were grown to 80% confluence, detached and counted. 50,000 cells were then seeded in each well of a 24-well tissue culture plate (Sarstedt, cat # 83.3924), cultivated to approximately 85% confluence and treated with 5 µM of the respective compound and 50 µg/ml Cycloheximide (CHX) solution (Sigma-Aldrich, cat #C4859-1ML). Each well was then incubated with 500 µl of compound and CHX solution and compound and CHX solution were added after the indicated intervals to another well for a total time of eight hours. Next, medium was aspirated off and cells were lysed in RIPA buffer (Thermofisher, cat #89900) containing Protease and Phosphatase inhibitors (Thermofisher, cat #78442) for 30 min on ice. Lysates were thoroughly vortexed, centrifugated for 10 min at > 13,000×g and supernatant was transferred to a fresh cup and stored at -80 °C.
Cells were washed in ice-cold PBS and incubated for 30 min on ice with RIPA cell lysis buffer (Thermofisher, cat #89900) containing protease and phosphatase inhibitors (Thermofisher, cat #78442), scraped off and homogenized using a 25G syringe, and subsequently centrifugated for 10 min at > 13,000xg. […] After electrophoresis, gels were placed directly onto a TransBlot Turbo PVDF or nitrocellulose membrane (Bio-rad, cat #1704157 and cat #1704159) and transferred using the “HIGH MW” protocol (Bio-Rad). Subsequently, membranes were blocked for 1 h at room temperature using Clear Milk Blocking Buffer (ThermoFisher, cat #37587) supplemented with 0.1% Tween20 (Sigma-Aldrich, cat #P1379). Detection of antibody binding was performed by using Clarity Western ECL-Substrate (Bio-rad, cat #1705060S). Beta-Actin protein signals were used as a loading control. Western blot membranes were in some experiments stripped after development (indicated in the figure in each respective case) by washing the membranes twice for 10 min in PBS, followed by incubation in membranes in western blot stripping buffer (ThermoFisher, cat #21059) for 30 min at room temperature and gentle agitation. Stripped membranes were washed twice with PBS and incubated for 30 min in blocking buffer before incubation with primary antibody. A list of all antibodies used in this study is provided in Supplemental Table 6. Uncropped western blot images are provided in […]. Protein expression levels of western blot bands were quantified using Fiji (V.2.16) with beta-Actin signals for normalisation (Supplemental Table 8). Uncropped western blot images are provided in Supplemental Fig. 10.

The subject of another assay is MDA-MB-468 cells. Briefly: Three dose response gene expression analysis (qRT-PCR). Conditions: 0.1, 1 and 10 µM, 24 h. The procedure:
Total RNA from cell lines was isolated using the RNeasy Mini kit (cat #74104, Qiagen), according to the manufacturer’s instructions. qRT-PCR was performed as described elsewhere[51] with some minor modifications: RNA was reverse transcribed to cDNA using iScript Reverse Transcription Supermix (cat # 1708841, Bio-rad). cDNA was then diluted 1:5 in nuclease free H20. qRT-PCR was performed on a C1000 Touch thermal cycler (Bio-rad) and gene expression was detected with SsoAdvanced Universal SYBR Green Supermix (cat # 1725274, Bio-rad). Gene expression was determined by normalizing to GAPDH mRNA expression levels and fold expression change was calculated using the ΔΔCT method (ΔΔCT = ΔCt sample − Δct control). Primers used in qPCR are shown in Supplemental Table 9.
Adherent breast cancer cells were seeded in 24-well cell culture plates (ThermoFisher, Nunc, Delta surface, cat #144530) and T-ALL cells growing in suspension (Jurkat, RPMI-8402) were seeded in non-adherent 24-well plates (ThermoFisher, Nunc, cat […]). 60.000 cells were seeded and treated with 0.1, 1 and 10 µM of each compound. […] Cells were harvested 24 h post treatment and RNA isolation and gene expression analysis (qRT-PCR) was performed as described above.

[1] abbreviates: timepoint 0 (hours after cycloheximide).
[2] abbreviates: timepoint 1 (hours after cycloheximide).
Setting [3] is: timepoint 2 (hours after cycloheximide).
Where [4] appears, read: timepoint 4 (hours after cycloheximide).
The mark [5] stands for this setting: timepoint 6 (hours after cycloheximide).
Where [6] appears, read: timepoint 8 (hours after cycloheximide).

Each structure is given as a SMILES string. Values joined by “and” are separate entries in the source; they are usually repeats but may differ in a detail not shown here. Equal entries are not always repeated.

`COc1cccc(CNc2ccc(N3CCCCC3)cc2)c1OCc1cccs1` [compound C]: the “fraction of cells with large nuclei” value in the assay on MDA-MB-231 cells was “increased fraction”. The “overall level of NOTCH1 (ICC)” value in the assay on MDA-MB-231 cells is “not affected”. Further, the “AVG Giant cells/ total nucl (%)” value worked out at 2.4% in the assay on MDA-MB-231 cells (24h treatment, DMSO 1.4) and 3.8% in the assay with MDA-MB-231 cells (72h treatment, DMSO 0.7). Besides, the “AVG Average Size nuclei” value with MDA-MB-231 cells (24h treatment, DMSO 184.3) is given as 211.1; with MDA-MB-231 cells (72h treatment, DMSO 184.1), 267.6. The “Average Size nuclei” value with MDA-MB-231 cells (24h treatment) is 215.8 and 220.5 and 221.4 and 186.7; in the assay on MDA-MB-231 cells (72h treatment), 254.0 and 270.2 and 244.9 and 301.2. Also, the “Count (nuclei per field)” value in the assay on MDA-MB-231 cells (24h treatment) was 1118.0 and 1274.0 and 861.0 and 1213.0; with MDA-MB-231 cells (72h treatment), 251.0 and 246.0 and 215.0 and 208.0. In addition, the Giant cells /field with MDA-MB-231 cells (24h treatment) is 26.0 and 28.0 and 22.0 and 30.0; in the assay on MDA-MB-231 cells (72h treatment) it was 9.0 and 8.0 and 10.0. For the same compound, the “Giant cells/ total nucl (%)” value with MDA-MB-231 cells (24h treatment) is 2.3% and 2.2% and 2.6% and 2.5%; in the assay on MDA-MB-231 cells (72h treatment) it was 3.6% and 3.3% and 3.7% and 4.8%. In addition, the cell morphology result with MDA-MB-231 cells is recorded as “strongest effect”. Besides, the “NOTCH1/ (TMICD) band intensity” value with NOTCH1 (setting [1]) came to 11149.0; in the assay on NOTCH1 (setting [2]) it was 9563.6; in the assay with NOTCH1 (setting [3]), 5022.2; in the assay on NOTCH1 (setting [4]) it was 5169.6; in the assay on NOTCH1 (setting [5]) it was 6218.3; in the assay with NOTCH1 (setting [6]) it was 4511.9. In addition, the “NOTCH1 (TMICD) normalized to beta-Actin (used for plots)” value is recorded as 0.8 in the assay on NOTCH1 (timepoint 0, 5 µM); 0.7 in the assay on NOTCH1 (timepoint 1, 5 µM); 0.4 with NOTCH1 (timepoint 2, 5 µM); 0.347 in the assay with NOTCH1 (timepoint 4, 5 µM); 0.362 in the assay with NOTCH1 (timepoint 6, 5 µM); 0.277 in the assay with NOTCH1 (timepoint 8, 5 µM). For the same compound, the “NOTCH1 (TMICD), DMSO as reference” value with NOTCH1 (timepoint 0, 5 µM) was 1.0; in the assay with NOTCH1 (timepoint 1, 5 µM), 0.9; with NOTCH1 (timepoint 2, 5 µM), 0.5; in the assay with NOTCH1 (timepoint 4, 5 µM), 0.442; with NOTCH1 (timepoint 6, 5 µM), 0.46; with NOTCH1 (timepoint 8, 5 µM) it was 0.352.

With `CC(C)(C(=O)NCC(F)(F)C(F)(F)F)C(=O)N[C@@H]1C(=O)Nc2ccccc2-c2ccccc21` [RO4929097, reference compound], the “fraction of cells with large nuclei” value in the assay with MDA-MB-231 cells is “smaller increase”. Further, the “overall level of NOTCH1 (ICC)” value with MDA-MB-231 cells is “trend towards reduced levels”. The “AVG Giant cells/ total nucl (%)” value in the assay with MDA-MB-231 cells (24h treatment, DMSO 1.4) is 1.7%; with MDA-MB-231 cells (72h treatment, DMSO 0.7), 1.2%. The “AVG Average Size nuclei” value was 170.6 in the assay on MDA-MB-231 cells (24h treatment, DMSO 184.3) and 205.4 in the assay with MDA-MB-231 cells (72h treatment, DMSO 184.1). Moreover, the “Average Size nuclei” value was 168.5 and 151.9 and 180.3 and 181.9 with MDA-MB-231 cells (24h treatment, listed as GSI); 177.5 and 237.7 and 201.1 in the assay on MDA-MB-231 cells (72h treatment, listed as GSI). The “Count (nuclei per field)” value is 1431.0 and 1167.0 and 1371.0 and 1390.0 with MDA-MB-231 cells (24h treatment, listed as GSI); 508.0 and 335.0 and 447.0 with MDA-MB-231 cells (72h treatment, listed as GSI). Also, the Giant cells /field with MDA-MB-231 cells (24h treatment, listed as GSI) was 23.0 and 26.0 and 17.0 and 24.0; with MDA-MB-231 cells (72h treatment, listed as GSI) it was 4.0 and 6.0 and 5.0. Besides, the “Giant cells/ total nucl (%)” value was 1.6% and 2.2% and 1.2% and 1.7% in the assay on MDA-MB-231 cells (24h treatment, listed as GSI); 0.8% and 1.8% and 1.1% in the assay with MDA-MB-231 cells (72h treatment, listed as GSI). Also, in the assay with MDA-MB-231 cells, the cell morphology entry is “moderate effect”. Also, in the assay with NOTCH1 (cycloheximide chase, Supplemental Fig. 8B), the “protein stability of NOTCH1 (in words)” value is “enhanced protein stability”. For the same compound, the “NOTCH1/ (TMICD) band intensity” value with NOTCH1 (setting [1]) is 20583.6; in the assay on NOTCH1 (setting [2]) it was 14235.7; with NOTCH1 (setting [3]) it was 11993.7; in the assay on NOTCH1 (setting [4]), 14001.0; in the assay with NOTCH1 (setting [5]), 9107.8; in the assay on NOTCH1 (setting [6]), 9737.6. For the same compound, the “NOTCH1 (TMICD) normalized to beta-Actin (used for plots)” value is given as 1.3 with NOTCH1 (timepoint 0, 5 µM); 0.8 in the assay on NOTCH1 (timepoint 1, 5 µM); 0.6 in the assay on NOTCH1 (timepoint 2, 5 µM); 0.8 with NOTCH1 (timepoint 4, 5 µM); 0.8 in the assay with NOTCH1 (timepoint 6, 5 µM); 0.7 in the assay with NOTCH1 (timepoint 8, 5 µM). The “NOTCH1 (TMICD), DMSO as reference” value amounted to 1.0 with NOTCH1 (timepoint 0, 5 µM); 0.6 with NOTCH1 (timepoint 1, 5 µM); 0.5 in the assay with NOTCH1 (timepoint 2, 5 µM); 0.6 in the assay on NOTCH1 (timepoint 4, 5 µM); 0.6 in the assay with NOTCH1 (timepoint 6, 5 µM); 0.53 in the assay with NOTCH1 (timepoint 8, 5 µM). In addition, in the assay with MDA-MB-468 cells, the c-MYC expression entry is reported as “did not reduce”.

`CC(C)(C)c1ccc(Oc2ccc(N)cn2)cc1` [CB-103, reference compound]: in the assay with MDA-MB-468 cells, the HES4 expression result is “upregulation”.
